The kinase profiling compilation of Christmann-Franck et al. (2016)

Legend:
Assay in all cases: radiometric filter-binding kinase assay, Kinase HotSpot
Settings in all cases: compound 0.5 µM; ATP 10 µM
ADRBK2 (human) = ADRBK2 (human) (UniProt P35626)
ALK (human) = ALK (human) (UniProt Q9UM73)
AXL (human) = AXL (human) (UniProt P30530)
BRSK1 (human) = BRSK1 (human) (UniProt Q8TDC3)
CAMK2A (human) = CAMK2A (human) (UniProt Q9UQM7)
CDK1 CCNB1 (human) = CDK1 CCNB1 (human) (UniProt P06493+P14635)
CDK2 CCNA2 (human) = CDK2 CCNA2 (human) (UniProt P24941+P20248)
CLK1 (human) = CLK1 (human) (UniProt P49759)
CSNK1G2 (human) = CSNK1G2 (human) (UniProt P78368)
DAPK2 (human) = DAPK2 (human) (UniProt Q9UIK4)
DAPK3 (human) = DAPK3 (human) (UniProt O43293)
EPHB2 (human) = EPHB2 (human) (UniProt P29323)
FER (human) = FER (human) (UniProt P16591)
FRK (human) = FRK (human) (UniProt P42685)
HIPK4 (human) = HIPK4 (human) (UniProt Q8NE63)
LIMK1 (human) = LIMK1 (human) (UniProt P53667)
MAP4K4 (human) = MAP4K4 (human) (UniProt O95819)
MAPK13 (human) = MAPK13 (human) (UniProt O15264)
MAPK9 (human) = MAPK9 (human) (UniProt P45984)
MAPKAPK3 (human) = MAPKAPK3 (human) (UniProt Q16644)
MET (human) = MET (human) (UniProt P08581)
MINK1 (human) = MINK1 (human) (UniProt Q8N4C8)
NEK3 (human) = NEK3 (human) (UniProt P51956)
NTRK2 (human) = NTRK2 (human) (UniProt Q16620)
PDPK1 (human) = PDPK1 (human) (UniProt O15530)
PRKCB1 (human) = PRKCB1 (human) (UniProt P05771)
PRKCE (human) = PRKCE (human) (UniProt Q02156)
PTK6 (human) = PTK6 (human) (UniProt Q13882)
ROS1 (human) = ROS1 (human) (UniProt P08922)
RPS6KA2 KD1 KD2 (human) = RPS6KA2 KD1 KD2 (human) (UniProt Q15349)
RPS6KA4 KD2 (human) = RPS6KA4 KD2 (human) (UniProt O75676)
RPS6KA6 KD1 KD2 (human) = RPS6KA6 KD1 KD2 (human) (UniProt Q9UK32)
STK11 (human) = STK11 (human) (UniProt Q15831)
STK16 (human) = STK16 (human) (UniProt O75716)
SYK (human) = SYK (human) (UniProt P43405)
TAOK1 (human) = TAOK1 (human) (UniProt Q7L7X3)
TGFBR1 (human) = TGFBR1 (human) (UniProt P36897)
TTK (human) = TTK (human) (UniProt P33981)
[1] = biological target: TYK2 JH1 catalytic (human) (UniProt P29597)
ULK1 (human) = ULK1 (human) (UniProt O75385)
WNK2 (human) = WNK2 (human) (UniProt Q9Y3S1)
ZAP70 (human) = ZAP70 (human) (UniProt P43403)

ROS1 (human), sequence (P08922 whole entry, looked up): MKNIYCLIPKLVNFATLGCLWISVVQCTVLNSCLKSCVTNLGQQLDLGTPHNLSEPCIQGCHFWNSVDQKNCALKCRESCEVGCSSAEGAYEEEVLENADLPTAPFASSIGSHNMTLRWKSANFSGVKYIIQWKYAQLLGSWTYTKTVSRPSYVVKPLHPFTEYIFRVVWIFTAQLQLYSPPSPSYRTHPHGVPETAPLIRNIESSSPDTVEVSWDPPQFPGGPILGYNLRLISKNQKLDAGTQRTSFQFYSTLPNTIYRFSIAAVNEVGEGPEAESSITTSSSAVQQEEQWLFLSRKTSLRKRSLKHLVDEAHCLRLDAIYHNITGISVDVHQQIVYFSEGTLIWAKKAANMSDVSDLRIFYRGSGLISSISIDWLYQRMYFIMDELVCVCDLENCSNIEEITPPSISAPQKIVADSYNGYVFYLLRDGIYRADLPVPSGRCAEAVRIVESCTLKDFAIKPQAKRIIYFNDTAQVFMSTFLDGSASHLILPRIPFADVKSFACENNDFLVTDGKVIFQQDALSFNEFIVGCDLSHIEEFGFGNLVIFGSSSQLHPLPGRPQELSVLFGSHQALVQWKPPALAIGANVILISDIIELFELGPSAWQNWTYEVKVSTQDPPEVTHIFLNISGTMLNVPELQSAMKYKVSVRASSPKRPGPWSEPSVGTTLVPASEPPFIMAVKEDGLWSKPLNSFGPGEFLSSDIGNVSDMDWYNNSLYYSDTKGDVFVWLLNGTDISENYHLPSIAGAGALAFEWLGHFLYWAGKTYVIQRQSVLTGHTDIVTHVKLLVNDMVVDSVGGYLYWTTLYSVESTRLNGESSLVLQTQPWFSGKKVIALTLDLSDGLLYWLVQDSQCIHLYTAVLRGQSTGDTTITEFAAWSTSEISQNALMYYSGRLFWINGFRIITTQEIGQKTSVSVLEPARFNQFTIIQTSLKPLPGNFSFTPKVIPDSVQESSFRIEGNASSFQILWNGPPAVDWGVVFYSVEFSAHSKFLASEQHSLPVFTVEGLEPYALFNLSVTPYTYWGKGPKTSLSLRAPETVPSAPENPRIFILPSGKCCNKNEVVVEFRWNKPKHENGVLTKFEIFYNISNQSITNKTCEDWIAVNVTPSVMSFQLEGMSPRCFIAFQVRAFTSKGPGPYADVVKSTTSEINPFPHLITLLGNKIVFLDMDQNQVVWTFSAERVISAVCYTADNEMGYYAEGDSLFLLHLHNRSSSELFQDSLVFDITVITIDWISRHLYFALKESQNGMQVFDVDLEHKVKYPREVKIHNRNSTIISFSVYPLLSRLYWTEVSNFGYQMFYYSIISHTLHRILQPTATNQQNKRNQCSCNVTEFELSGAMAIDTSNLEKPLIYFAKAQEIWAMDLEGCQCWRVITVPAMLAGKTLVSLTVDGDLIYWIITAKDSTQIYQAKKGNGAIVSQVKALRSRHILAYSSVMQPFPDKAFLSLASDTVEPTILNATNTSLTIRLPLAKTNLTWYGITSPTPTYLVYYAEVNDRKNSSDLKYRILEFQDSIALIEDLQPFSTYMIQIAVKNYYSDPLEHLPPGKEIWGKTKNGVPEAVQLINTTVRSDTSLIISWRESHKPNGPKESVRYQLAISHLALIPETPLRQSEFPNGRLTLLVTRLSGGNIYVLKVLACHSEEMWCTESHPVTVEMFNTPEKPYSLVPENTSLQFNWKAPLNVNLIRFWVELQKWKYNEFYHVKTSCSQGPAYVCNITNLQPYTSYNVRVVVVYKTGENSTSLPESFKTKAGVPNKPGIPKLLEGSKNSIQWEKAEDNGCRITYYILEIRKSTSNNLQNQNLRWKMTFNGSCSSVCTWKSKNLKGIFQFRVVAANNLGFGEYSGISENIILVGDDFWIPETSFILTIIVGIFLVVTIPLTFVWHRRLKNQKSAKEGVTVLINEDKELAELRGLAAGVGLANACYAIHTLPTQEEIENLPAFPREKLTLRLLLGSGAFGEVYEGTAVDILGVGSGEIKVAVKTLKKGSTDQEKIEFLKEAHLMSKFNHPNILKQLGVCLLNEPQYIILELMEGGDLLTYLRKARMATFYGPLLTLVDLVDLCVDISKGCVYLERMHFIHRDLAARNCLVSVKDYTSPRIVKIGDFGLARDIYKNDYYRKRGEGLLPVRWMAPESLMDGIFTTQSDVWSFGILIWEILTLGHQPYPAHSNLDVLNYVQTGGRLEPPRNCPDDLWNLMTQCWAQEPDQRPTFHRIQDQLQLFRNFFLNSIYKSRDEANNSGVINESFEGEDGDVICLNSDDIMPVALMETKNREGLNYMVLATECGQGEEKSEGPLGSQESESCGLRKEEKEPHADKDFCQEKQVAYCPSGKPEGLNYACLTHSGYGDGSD
DAPK2 (human), sequence (Q9UIK4 whole entry, looked up): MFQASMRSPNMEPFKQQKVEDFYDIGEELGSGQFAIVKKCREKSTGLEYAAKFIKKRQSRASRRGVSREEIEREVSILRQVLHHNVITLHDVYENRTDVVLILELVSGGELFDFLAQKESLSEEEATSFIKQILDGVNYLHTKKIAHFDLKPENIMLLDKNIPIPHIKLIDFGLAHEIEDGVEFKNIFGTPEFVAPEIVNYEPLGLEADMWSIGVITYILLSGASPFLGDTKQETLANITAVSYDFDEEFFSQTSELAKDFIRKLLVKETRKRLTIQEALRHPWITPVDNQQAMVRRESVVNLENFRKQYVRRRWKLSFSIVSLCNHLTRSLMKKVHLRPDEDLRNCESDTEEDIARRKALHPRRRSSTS
ADRBK2 (human), sequence (P35626 whole entry, looked up): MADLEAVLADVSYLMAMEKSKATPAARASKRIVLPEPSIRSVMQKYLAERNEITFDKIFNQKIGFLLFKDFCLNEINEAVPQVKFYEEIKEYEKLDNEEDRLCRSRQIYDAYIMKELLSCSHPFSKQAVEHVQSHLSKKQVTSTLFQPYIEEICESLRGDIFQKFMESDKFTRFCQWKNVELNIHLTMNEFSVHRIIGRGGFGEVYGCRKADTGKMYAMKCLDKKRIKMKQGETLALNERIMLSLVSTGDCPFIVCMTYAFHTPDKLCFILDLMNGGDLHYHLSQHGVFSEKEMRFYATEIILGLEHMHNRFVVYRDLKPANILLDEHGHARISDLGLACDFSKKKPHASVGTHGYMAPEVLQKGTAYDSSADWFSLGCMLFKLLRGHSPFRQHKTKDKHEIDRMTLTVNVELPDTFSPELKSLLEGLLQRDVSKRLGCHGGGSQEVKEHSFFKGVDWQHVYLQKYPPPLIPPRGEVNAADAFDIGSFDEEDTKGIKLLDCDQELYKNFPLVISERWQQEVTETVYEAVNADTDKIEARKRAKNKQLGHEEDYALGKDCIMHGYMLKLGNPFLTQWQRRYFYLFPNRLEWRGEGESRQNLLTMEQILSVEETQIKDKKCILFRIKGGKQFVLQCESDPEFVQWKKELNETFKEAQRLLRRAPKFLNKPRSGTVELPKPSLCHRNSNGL
PRKCE (human), sequence (Q02156 whole entry, looked up): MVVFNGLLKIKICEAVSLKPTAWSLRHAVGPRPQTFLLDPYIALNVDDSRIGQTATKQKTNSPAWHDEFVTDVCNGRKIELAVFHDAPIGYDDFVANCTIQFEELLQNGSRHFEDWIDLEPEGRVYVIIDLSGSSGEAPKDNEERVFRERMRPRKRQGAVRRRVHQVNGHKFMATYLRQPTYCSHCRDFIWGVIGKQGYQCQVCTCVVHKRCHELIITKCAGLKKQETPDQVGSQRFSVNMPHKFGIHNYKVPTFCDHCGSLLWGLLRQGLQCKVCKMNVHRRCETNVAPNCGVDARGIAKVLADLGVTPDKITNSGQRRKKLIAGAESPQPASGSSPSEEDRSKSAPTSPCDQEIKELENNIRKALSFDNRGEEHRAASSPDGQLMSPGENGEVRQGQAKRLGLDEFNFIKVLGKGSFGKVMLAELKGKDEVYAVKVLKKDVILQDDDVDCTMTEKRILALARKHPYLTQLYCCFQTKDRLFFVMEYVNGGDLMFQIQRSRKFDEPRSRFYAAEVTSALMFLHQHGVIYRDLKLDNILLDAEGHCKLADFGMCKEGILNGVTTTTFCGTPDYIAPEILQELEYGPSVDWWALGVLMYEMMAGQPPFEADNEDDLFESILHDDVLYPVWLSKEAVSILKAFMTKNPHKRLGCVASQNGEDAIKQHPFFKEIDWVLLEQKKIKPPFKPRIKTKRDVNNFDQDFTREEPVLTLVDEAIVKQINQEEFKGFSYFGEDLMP
RPS6KA2 KD1 KD2 (human), sequence (Q15349 whole entry, looked up): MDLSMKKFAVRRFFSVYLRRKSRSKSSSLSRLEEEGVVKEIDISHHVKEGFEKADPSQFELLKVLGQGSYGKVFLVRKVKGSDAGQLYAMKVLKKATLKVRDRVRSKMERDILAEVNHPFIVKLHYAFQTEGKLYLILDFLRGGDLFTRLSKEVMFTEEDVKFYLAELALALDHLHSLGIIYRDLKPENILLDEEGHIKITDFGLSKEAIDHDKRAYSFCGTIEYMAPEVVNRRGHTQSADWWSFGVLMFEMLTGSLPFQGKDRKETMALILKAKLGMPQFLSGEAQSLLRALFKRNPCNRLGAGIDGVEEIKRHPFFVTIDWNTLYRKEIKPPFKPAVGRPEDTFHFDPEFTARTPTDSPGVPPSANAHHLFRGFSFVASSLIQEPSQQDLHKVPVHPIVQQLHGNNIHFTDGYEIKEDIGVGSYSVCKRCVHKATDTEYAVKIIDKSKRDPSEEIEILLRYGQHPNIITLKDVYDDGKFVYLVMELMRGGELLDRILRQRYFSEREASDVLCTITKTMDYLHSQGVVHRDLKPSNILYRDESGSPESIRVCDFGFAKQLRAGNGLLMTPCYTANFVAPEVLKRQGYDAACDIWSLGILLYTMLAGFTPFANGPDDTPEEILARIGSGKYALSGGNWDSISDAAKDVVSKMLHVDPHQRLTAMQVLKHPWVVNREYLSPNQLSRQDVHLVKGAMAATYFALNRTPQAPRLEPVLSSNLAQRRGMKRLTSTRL

COc1cc2nccc(Oc3ccc(NC(=S)NC(=O)c4ccccc4C)cc3)c2cc1OC
residual activity (ADRBK2 (human)): 94.9%
residual activity (ALK (human)): 80.8%
residual activity (AXL (human)): 80.4%
residual activity (BRSK1 (human)): 87%
residual activity (CAMK2A (human)): 85.6%
residual activity (CDK1 CCNB1 (human)): 90.7%
residual activity (CDK2 CCNA2 (human)): 94.2%
residual activity (CLK1 (human)): 89.9%
residual activity (CSNK1G2 (human)): 106%
residual activity (DAPK2 (human)): 78.7%
residual activity (DAPK3 (human)): 75.4%
residual activity (EPHB2 (human)): 93.5%
residual activity (FER (human)): 58.2%
residual activity (FRK (human)): 27.5%
residual activity (HIPK4 (human)): 86%
residual activity (LIMK1 (human)): 82.7%
residual activity (MAP4K4 (human)): 87.8%
residual activity (MAPK13 (human)): 101%
residual activity (MAPK9 (human)): 82.7%
residual activity (MAPKAPK3 (human)): 102%
residual activity (MET (human)): 60.4%
residual activity (MINK1 (human)): 90.1%
residual activity (NEK3 (human)): 99.6%
residual activity (NTRK2 (human)): 102%
residual activity (PDPK1 (human)): 105%
residual activity (PRKCB1 (human)): 91.9%
residual activity (PRKCE (human)): 99.7%
residual activity (PTK6 (human)): 33.9%
residual activity (ROS1 (human)): 26.7%
residual activity (RPS6KA2 KD1 KD2 (human)): 91.1%
residual activity (RPS6KA4 KD2 (human)): 99.7%
residual activity (RPS6KA6 KD1 KD2 (human)): 93%
residual activity (STK11 (human)): 106%
residual activity (STK16 (human)): 101%
residual activity (SYK (human)): 95.5%
residual activity (TAOK1 (human)): 71.3%
residual activity (TGFBR1 (human)): 98%
residual activity (TTK (human)): 101%
residual activity [1]: 88.5%
residual activity (ULK1 (human)): 95%
residual activity (WNK2 (human)): 94.1%
residual activity (ZAP70 (human)): 97%

Clc1ccc(Nc2nnc(Cc3ccncc3)c3ccccc23)cc1
residual activity (ADRBK2 (human)): 92.9%
residual activity (ALK (human)): 102%
residual activity (AXL (human)): 98.3%
residual activity (BRSK1 (human)): 93.1%
residual activity (CAMK2A (human)): 93.2%
residual activity (CDK1 CCNB1 (human)): 104%
residual activity (CDK2 CCNA2 (human)): 87.7%
residual activity (CLK1 (human)): 110%
residual activity (CSNK1G2 (human)): 98.2%
residual activity (DAPK2 (human)): 91.7%
residual activity (DAPK3 (human)): 107%
residual activity (EPHB2 (human)): 107%
residual activity (FER (human)): 91.4%
residual activity (FRK (human)): 95.4%
residual activity (HIPK4 (human)): 95.9%
residual activity (LIMK1 (human)): 98.9%
residual activity (MAP4K4 (human)): 107%
residual activity (MAPK13 (human)): 88.9%
residual activity (MAPK9 (human)): 97.5%
residual activity (MAPKAPK3 (human)): 98.9%
residual activity (MET (human)): 94%
residual activity (MINK1 (human)): 104%
residual activity (NEK3 (human)): 94.1%
residual activity (NTRK2 (human)): 102%
residual activity (PDPK1 (human)): 88.3%
residual activity (PRKCB1 (human)): 83.5%
residual activity (PRKCE (human)): 100%
residual activity (ROS1 (human)): 94.7%
residual activity (RPS6KA2 KD1 KD2 (human)): 97.5%
residual activity (RPS6KA4 KD2 (human)): 98%
residual activity (RPS6KA6 KD1 KD2 (human)): 99.7%
residual activity (STK11 (human)): 97.3%
residual activity (STK16 (human)): 93.5%
residual activity (SYK (human)): 114%
residual activity (TAOK1 (human)): 98.7%
residual activity (TGFBR1 (human)): 96.8%
residual activity (TTK (human)): 108%
residual activity [1]: 89.4%
residual activity (ULK1 (human)): 107%
residual activity (WNK2 (human)): 96.3%
residual activity (ZAP70 (human)): 96.6%
